In patent US5395922A, “Yeast processing system” (Novo Nordisk A/S, priority 1989, dated 1995):

Tests used:
Type in all cases: biochemical
plasmin = plasmin (Homo sapiens, UniProt P00747); assay: Plasmin inhibition titration curves (S 2251 substrate, rate of nitroaniline production); conditions: 30 minutes incubation of enzyme with inhibitor, 0.6 mM S 2251; FIG. 5B
Description: (§1) The trypsin and plasmin inhibition by Glu-Leu-aprotinin (1-58) in terms of titration curves determined as described below were indistinguishable from that of bovine pancreatic aprotinin (Aprotinin Novo). After incubation of the enzyme with aprotinin or its analogues for 30 minutes, 0.6 mM S 2251 (KabiVitrum) was added and the activity measured as the rate of nitroaniline production. The activity as a function of aprotinin concentration is plotted in FIG. 5A and 5B. Complete inhibition of both enzymes with all three inhibitors was observed.

trypsin [1] = assay: Trypsin inhibition titration curves (S 2251 substrate, rate of nitroaniline production); conditions: 30 minutes incubation of enzyme with inhibitor, 0.6 mM S 2251; FIG. 5A
Description: as §1

trypsin [2] = assay: Trypsin inhibitor specific activity, spectrophotometric assay (method of Kassel); conditions: comparison with native aprotinin
Description: Yeast strain KFN-837 was grown on YPD medium (1% yeast extract, 2% peptone (from Difco Laboratories), and 6% glucose). A 200 ml culture of the strain was shaken at 250 rpm at 30° C. for 3 days to an O.D. at 600 nm of 20 (Dry yeast biomass 18.8 g/liter). After centrifugation the supernatant was analyzed by FPLC ion exchange chromatography. The yeast supernatant was filtered through a 0.22 μm Millex GV filter unit and 1 ml was applied on a MonoS cation exchange column (0.5×5 cm) equilibrated with 20 mM Bicine, pH=8.7. After wash with equilibration buffer the column was eluted with a linear NaCl gradient (0-1M) in equilibration buffer. Trypsin inhibitor activity was quantified in the eluted fractions by spectrophotometric assay (Kassel, B., Methods Enzymol. 19 (1970), 844-852) and furthermore by integration of absorption at 280 nm from [formula] The yield was […] of Glu-Leu-aprotinin(1-58).
as §1, with “Complete inhibition of both enzymes with all three inhibitors was observed.” left out

Sequence of plasmin (P00747 581-810 limits assumed, species assumed): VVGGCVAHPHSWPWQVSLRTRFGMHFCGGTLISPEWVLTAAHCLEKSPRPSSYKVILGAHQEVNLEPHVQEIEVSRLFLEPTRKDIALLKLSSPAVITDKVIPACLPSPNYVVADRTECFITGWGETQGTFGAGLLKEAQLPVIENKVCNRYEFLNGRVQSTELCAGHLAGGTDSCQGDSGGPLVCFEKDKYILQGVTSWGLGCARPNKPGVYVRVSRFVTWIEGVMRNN
Sequence of plasmin (P00747 97-580 partner limits assumed, species assumed): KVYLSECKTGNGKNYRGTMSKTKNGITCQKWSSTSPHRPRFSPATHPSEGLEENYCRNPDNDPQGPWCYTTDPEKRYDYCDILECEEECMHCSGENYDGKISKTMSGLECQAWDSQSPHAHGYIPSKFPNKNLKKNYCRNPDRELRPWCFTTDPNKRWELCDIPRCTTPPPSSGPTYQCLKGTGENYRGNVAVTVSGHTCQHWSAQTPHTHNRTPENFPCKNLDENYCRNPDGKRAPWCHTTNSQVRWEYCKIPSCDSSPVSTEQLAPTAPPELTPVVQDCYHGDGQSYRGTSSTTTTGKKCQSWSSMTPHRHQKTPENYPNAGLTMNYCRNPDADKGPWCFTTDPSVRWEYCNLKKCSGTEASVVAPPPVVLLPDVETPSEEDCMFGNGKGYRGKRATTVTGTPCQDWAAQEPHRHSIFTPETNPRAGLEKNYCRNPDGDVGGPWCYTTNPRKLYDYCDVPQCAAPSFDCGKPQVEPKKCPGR

Row | Substance | plasmin inhibition in terms of titration curves, compared with bovine pancreatic aprotinin (Aprotinin Novo) (plasmin) | trypsin inhibition in terms of titration curves, compared with bovine pancreatic aprotinin (Aprotinin Novo) (trypsin [1]) | specific (inhibitory) activity against trypsin compared with native / bovine pancreatic aprotinin (trypsin [2])
1 | Glu-Leu-aprotinin(1-58) | indistinguishable | indistinguishable | identical within the experimental error
2 | Glu-Leu-Asp-Leu-aprotinin(1-58) | indistinguishable | indistinguishable | 
3 | aprotinin(1-58) |  |  | indistinguishable
